Legend:
acute migraine = experiment: Patient case reports: acute (rescue/abortive) migraine therapy; assay type: in vivo, human; settings: for success for acute migraine: historically, before the regimen
migraine headaches = settings: for effect of preventive on migraine frequency: Patient two, before the regimen, ELAVIL 75 mg orally at bedtime, prednisone brief rounds
[1] = Patient three, history before the regimen

CN[C@@H]1CCc2[nH]c3ccc(C(N)=O)cc3c2C1 [FROVA]
success for acute migraine (acute migraine; Patient one): moderate success
success as rescue drug (acute migraine; Patient one, while using the regimen): with success

CN(C)CCc1c[nH]c2ccc(Cn3cncn3)cc12 [MAXALT]
response for acute migraine rescue (acute migraine; [1]): poor response

CC(CN1c2ccccc2Sc2ccccc21)N(C)C (stereo not shown) [phenegran]
success for acute migraine (acute migraine; Patient one): moderate success

CC1(C)O[C@@H]2[C@@H](CO[C@@]3(COS(N)(=O)=O)OC(C)(C)O[C@@H]23)O1 [TOPAMAX]
migraine reduction and severity with preventive (migraine headaches; Patient one): poor migraine reduction and severity
effect of preventive on migraine frequency (migraine headaches): did not reduce migraine frequency
side effects of migraine prevention (migraine headaches; human, in vivo): cognitive dysfunction
side effects of migraine preventive (migraine headaches; human, in vivo): alopecia
tolerance of migraine preventive (migraine headaches; human, in vivo): poor tolerance

CN(C)CCC=C1c2ccccc2CCc2ccccc21 [ELAVIL]
effect of preventive on migraine frequency (migraine headaches): did not reduce migraine frequency
side effects of migraine preventive (migraine headaches; human, in vivo): weight gain

Clc1ccc2nsnc2c1NC1=NCCN1 [ZANAFLEX]
side effects of migraine prevention (migraine headaches; human, in vivo): cognitive dysfunction

CC(C)C[C@H](CN)CC(=O)O [LYRICA]
side effects of migraine preventive (migraine headaches; human, in vivo): fluid retention and confusion

O=C(c1ccccc1)c1ccc2n1CCC2C(=O)O (stereo not shown) [TORADOL]
response for acute migraine rescue (acute migraine; [1]): poor response
response to abortive therapy (acute migraine; human, in vivo, po): good response

C[C@]12C=CC(=O)C=C1CC[C@@H]1[C@@H]2C(=O)C[C@@]2(C)[C@H]1CC[C@]2(O)C(=O)CO [prednisone]
effect of preventive on migraine frequency (migraine headaches): short-lived migraine reduction

botulinum toxin [BOTOX]
migraine remission / frequency (migraine headaches; human, in vivo): complete remission of migraines to once per month

CC(C)(C#N)c1cc(Cn2cncn2)cc(C(C)(C)C#N)c1 [ARMIDEX]
effect on migraines (adverse) (migraine headaches; human, in vivo): more frequent, disabling, and less responsive

CNS(=O)(=O)Cc1ccc2[nH]cc(CCN(C)C)c2c1 [IMITREX]
course of response for acute migraine rescue (acute migraine; [1]): worked well initially, but became ineffective
response for acute migraine rescue (acute migraine; [1]): poor response
response of migraines to acute therapy (acute migraine; Patient two, 100 mg orally, prior to breast cancer diagnosis, two to three migraines per month): responded well
response to rescue medication (acute migraine; Patient two, while using the regimen and ELAVIL): more responsive to a single dose
